What is called IC50 is the concentration that inhibits the measured activity by half. Usually logD stands for the decadic logarithm of the distribution of all forms, ionised or not, between an organic phase and buffer at a given pH. Low readings indicate lower lipophilicity, high ones higher lipophilicity. What is called solubility is the concentration that dissolves in the medium under given conditions. A lower solubility goes with little dissolved substance. As usually defined, the Vd is a proportionality between amount in the body and measured concentration, not a real space. Read a low Vd as little distribution into tissue. Broadly, the clearance is the volume of plasma or blood freed of the substance per unit of time.

Series [1] has as its target T1, Tyrosine-protein kinase JAK2 (Homo sapiens, UniProt O60674). Nature of the series: Inhibition of JAK2 in cell-free system.
Series [2] is described as follows: Lipophilicity log D of the compound at pH 7.4 by HPLC. It counts as physicochemical. The note with it: buffer.
Series [3] concerns the target T1, Tyrosine-protein kinase JAK2. Nature of the series: Inhibition of JAK2 expressed in human Du-145 cells. It counts as cell-based.
Series [4] can be described thus: Aqueous solubility of the compound at pH 7. It counts as physicochemical.
Series [5] can be described thus: Volume of distribution in Sprague-Dawley rat at 1 mg/kg, iv. The format is ADME, organism-based. The arrangement: dose 1 mg/kg, route intravenous. The note with it: in vivo.
Series [6] is described as follows: Clearance in Sprague-Dawley rat at 1 mg/kg, iv. The format is ADME, organism-based. Further details: dose 1 mg/kg, route intravenous. The note with it: in vivo.
The subject of series [7] is Mus musculus. The experiment in a line: Inhibition of JAK2 in erythropoietin-treated […] mouse assessed as reduction in pSTAT5 level in whole blood at 30 mg/kg, po measured after 1 and 3 hrs. It counts as functional, organism-based. The arrangement: dose 30 mg/kg, route oral.
Series [8] has as its system Mus musculus. The experiment in a line: Inhibition of JAK2 in erythropoietin-treated […] mouse assessed as reduction in pSTAT5 level in whole blood at 90 mg/kg, po measured after 1 and 3 hrs. It counts as functional, organism-based. Further details: dose 90 mg/kg, route oral.

Converted amounts (≈) assume the structure as drawn.

T1 sequence (O60674 whole entry): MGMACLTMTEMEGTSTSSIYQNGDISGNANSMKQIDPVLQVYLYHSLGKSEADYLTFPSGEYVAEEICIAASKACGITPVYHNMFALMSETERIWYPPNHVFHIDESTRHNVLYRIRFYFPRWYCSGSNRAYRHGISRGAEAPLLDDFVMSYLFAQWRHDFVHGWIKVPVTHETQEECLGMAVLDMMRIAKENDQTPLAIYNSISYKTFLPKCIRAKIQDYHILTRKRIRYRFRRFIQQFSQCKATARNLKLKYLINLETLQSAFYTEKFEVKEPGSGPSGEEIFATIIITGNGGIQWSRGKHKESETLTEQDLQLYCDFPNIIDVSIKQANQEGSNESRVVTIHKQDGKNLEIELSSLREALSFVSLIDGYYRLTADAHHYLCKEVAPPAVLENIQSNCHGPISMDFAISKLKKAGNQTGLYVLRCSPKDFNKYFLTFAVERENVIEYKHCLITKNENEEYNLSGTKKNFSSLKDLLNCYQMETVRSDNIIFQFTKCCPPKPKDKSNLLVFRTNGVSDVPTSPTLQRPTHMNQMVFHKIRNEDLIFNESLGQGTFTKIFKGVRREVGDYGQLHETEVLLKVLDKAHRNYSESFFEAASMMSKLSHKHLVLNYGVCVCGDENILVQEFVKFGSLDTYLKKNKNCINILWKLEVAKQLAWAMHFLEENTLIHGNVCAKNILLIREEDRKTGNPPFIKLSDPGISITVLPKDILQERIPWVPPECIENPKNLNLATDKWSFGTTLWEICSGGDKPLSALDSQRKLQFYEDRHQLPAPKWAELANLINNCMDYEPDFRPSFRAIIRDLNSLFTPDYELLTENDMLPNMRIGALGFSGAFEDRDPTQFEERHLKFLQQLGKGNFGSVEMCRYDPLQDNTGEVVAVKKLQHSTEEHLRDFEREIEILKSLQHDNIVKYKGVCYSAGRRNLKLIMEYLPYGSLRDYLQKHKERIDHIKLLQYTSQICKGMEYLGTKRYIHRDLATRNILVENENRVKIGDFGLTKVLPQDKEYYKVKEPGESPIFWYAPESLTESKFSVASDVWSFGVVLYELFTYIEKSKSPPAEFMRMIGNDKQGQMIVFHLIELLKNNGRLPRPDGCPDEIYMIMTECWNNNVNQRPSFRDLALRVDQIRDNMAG

`CC(C)Nc1nc2cc[nH]c(=O)c2c2cc(F)ccc12`: in series [1], the concentration for half-maximal inhibition (IC50) is 139 nM.

As for `CC(C)[C@H](C)Nc1nc2cc[nH]c(=O)c2c2cc(F)ccc12`, the midpoint of inhibition in series [1], the IC50, lay at 27 nM.

Compound `O=c1[nH]ccc2nc(NC3CC(F)(F)C3)c3ccc(F)cc3c12` came in with an IC50 in series [1] of 750 nM.

With `CC(C)[C@@H](Nc1nc2cc[nH]c(=O)c2c2cc(F)ccc12)C(F)(F)F`, the IC50 in series [1] amounted to 1 nM; in series [3], 50 nM. This compound registered a logD in series [2] of 3.34. Further, the solubility in series [4] came to 3 µM (≈ 1.06 µg/mL). The compound also displayed a Vd in series [5] of 6 L/kg. The compound also displayed a clearance in series [6] of 21 mL/min/kg.

For `CC(C)[C@H](Nc1nc2cc[nH]c(=O)c2c2cc(F)ccc12)C(F)(F)F`, half-maximal inhibition in series [1] (IC50) was put at 55 nM.

Turning to `CC(C)(CO)CNc1nc2cc[nH]c(=O)c2c2cc(F)ccc12`, the half-inhibitory concentration (IC50) in series [1] amounted to 274 nM.

With `CC(C)[C@@H](Nc1nc2cc[nH]c(=O)c2c2cnccc12)C(F)(F)F`, the IC50 turned out to be 2700 nM in the series on Mus musculus [7], 2700 nM with Mus musculus [8], 1 nM in series [1] and 40 nM in series [3]. In addition, the logD in series [2] turned out to be 2.33. The compound also returned a solubility in series [4] of 120 µM (≈ 40.4 µg/mL). Moreover, in series [5], the volume of distribution (Vd) was 8 L/kg. In series [6], this compound displayed a clearance of 68 mL/min/kg.

Regarding `O=c1[nH]ccc2nc(NCc3ccncc3)c(-c3ccccc3)cc12`, the half-inhibitory concentration (IC50) in series [1] amounted to 1400 nM.

`CC(C)(C)CNc1nc2cc[nH]c(=O)c2cc1-c1ccc(F)cc1` yielded an IC50 in series [1] of 29000 nM.

In turn, `O=c1[nH]ccc2nc(N3CCC(F)(F)C3)c(-c3ccc(F)cc3)cc12` returned an IC50 in series [1] of 3940 nM.

In series [1], `CC(Nc1nc2cc[nH]c(=O)c2cc1-c1ccc(F)cc1)c1cc(F)c(Cl)cc1Cl` (stereo unspecified) showed an IC50 of 11800 nM.

With `CC(Nc1nc2cc[nH]c(=O)c2cc1-c1ccccn1)C(C)(C)C` (stereo unspecified), in series [1], the half-maximal inhibitory concentration (IC50) was 630 nM.

In series [1], `CC(Nc1nc2cc[nH]c(=O)c2cc1-c1nc(-c2ccccc2)no1)C(C)(C)C` (stereo unspecified) gave a concentration for half-maximal inhibition (IC50) of 11500 nM.

`CC(Nc1nc2cc[nH]c(=O)c2cc1C(=O)NCCN(C)C)C(C)(C)C` (stereo unspecified) displayed a half-inhibitory concentration (IC50) in series [1] of 8350 nM.

As for `CC(Nc1nc2cc[nH]c(=O)c2c2cc(F)ccc12)C(C)(C)C` (stereo unspecified), the IC50 in series [1] was found to be 26 nM.

In series [1], `CC(C)(CN)CNc1nc2cc[nH]c(=O)c2c2cc(F)ccc12` had a concentration for half-maximal inhibition (IC50) of 3160 nM.

In series [1], `O=c1[nH]ccc2nc(NCC3CCS(=O)(=O)C3)c3ccc(F)cc3c12` (stereo unspecified) returned a concentration for half-maximal inhibition (IC50) of 512 nM.

Compound `O=c1[nH]ccc2nc(NCc3ccccn3)c3ccc(F)cc3c12` came in with an IC50 in series [1] of 1110 nM.

In turn, `O=c1[nH]ccc2nc(NCc3c(Cl)cccc3Cl)c3ccc(F)cc3c12` registered a concentration for half-maximal inhibition (IC50) in series [1] of 53 nM.

`CN1CCC(N(c2nc3cc[nH]c(=O)c3c3cc(F)ccc23)C2CC2)CC1` yielded an IC50 in series [1] of 540 nM.

Consider `O=c1[nH]ccc2nc(Nc3cccc(F)c3)c3ccc(F)cc3c12`, for which, in series [1], the IC50 is 4100 nM.

In the case of `O=c1[nH]ccc2nc(Nc3c(F)cc(F)cc3Cl)c3ccc(F)cc3c12`, in series [1], the half-maximal inhibitory concentration (IC50) amounted to 4 nM.

`O=c1[nH]ccc2nc(Nc3c(Cl)cccc3Cl)c3ccc(F)cc3c12`: inhibition in series [1] was half-maximal at 14 nM (IC50).

Consider `O=c1[nH]ccc2nc(NC3CCC3)c3ccc(F)cc3c12`, for which it took 75 nM to reach half-maximal inhibition in series [1] (IC50).

Source of the values: ChEMBL document CHEMBL1287746, “The discovery of tricyclic pyridone JAK2 inhibitors. Part 1: hit to lead” (Bioorg Med Chem Lett, 2010).
